Source: ChEMBL document CHEMBL3885861, “Open TG-GATES”

Species: Rattus norvegicus
Assay: Open TG-GATES - Regimen: Daily Repeat
Assay type: toxicity, organism-based, Sprague-Dawley
Design: regimen Daily Repeat, gender Male, age 6 weeks
Conditions: in vivo, po, 0 mg/kg, route gavage, dose level Control; for APTT / Bas / Eos / Fbg / Hb / Ht / Lym / MCH / MCHC / MCV / Mono / Neu / PT / Plat / RBC / Ret / WBC: tissue Blood; for KIDNEY_L / KIDNEY_R / KIDNEY_TOTAL: tissue Kidney; for LIVER: tissue Liver; for A/G / ALP / ALT / AST / BUN / CRE / Ca / Cl / DBIL / GLC / IP / K / LDH / Na / PL / RALB / TBIL / TC / TG / TP / gamma-GTP: tissue Plasma

C[C@H]1O[C@H](O[C@H]2[C@H](O)[C@@H](O)[C@@H](O[C@H]3[C@H](O)[C@@H](O)C(O)O[C@@H]3CO)O[C@@H]2CO)[C@H](O)[C@@H](O)[C@@H]1N[C@H]1C=C(CO)[C@@H](O)[C@H](O)[C@H]1O (some centres not stated) [ACARBOSE]
TERMINAL_BW (72 h, time 3 day): 228.3 g
APTT (72 h, time 3 day): 16.7 s
Bas (72 h, time 3 day): 0%
Eos (72 h, time 3 day): 1.2%
Fbg (72 h, time 3 day): 274.6 mg/dL
Hb (72 h, time 3 day): 13.7 g/dL
Ht (72 h, time 3 day): 41.3%
Lym (72 h, time 3 day): 73.2%
MCH (72 h, time 3 day): 21.7 pg
MCHC (72 h, time 3 day): 33.1%
MCV (72 h, time 3 day): 65.4 fL
Mono (72 h, time 3 day): 3.2%
Neu (72 h, time 3 day): 21.4%
PT (72 h, time 3 day): 13 s
Plat (72 h, time 3 day): 129.5 x10_4/uL
RBC (72 h, time 3 day): 632.2 x10_4/ul
Ret (72 h, time 3 day): 7%
WBC (72 h, time 3 day): 102.7 x10_2/uL
KIDNEY_L (72 h, time 3 day): 1 g
KIDNEY_R (72 h, time 3 day): 1 g
KIDNEY_TOTAL (72 h, time 3 day): 2 g
LIVER (72 h, time 3 day): 10.3 g
A/G (72 h, time 3 day): 0.9
ALP (72 h, time 3 day): 1816 IU/L
ALT (72 h, time 3 day): 42.4 IU/L
AST (72 h, time 3 day): 71 IU/L
BUN (72 h, time 3 day): 14 mg/dL
CRE (72 h, time 3 day): 0.2 mg/dL
Ca (72 h, time 3 day): 10.8 mg/dL
Cl (72 h, time 3 day): 104.2 meq/L
DBIL (72 h, time 3 day): 0.006 mg/dL
GLC (72 h, time 3 day): 173 mg/dL
IP (72 h, time 3 day): 7.5 mg/dL
K (72 h, time 3 day): 4 meq/L
LDH (72 h, time 3 day): 86.2 IU/L
Na (72 h, time 3 day): 140.6 meq/L
PL (72 h, time 3 day): 144.8 mg/dL
RALB (72 h, time 3 day): 2.6 g/dL
TBIL (72 h, time 3 day): 0.054 mg/dL
TC (72 h, time 3 day): 71.6 mg/dL
TG (72 h, time 3 day): 99 mg/dL
TP (72 h, time 3 day): 5.5 g/dL
gamma-GTP (72 h, time 3 day): 1 IU/L
TERMINAL_BW ([…], time 7 day): 273.8 g
TERMINAL_BW ([…], time 14 day): 316.7 g
TERMINAL_BW ([…], time 28 day): 390.9 g
APTT ([…], time 7 day): 18 s
Bas ([…], time 7 day): 0.2%
Eos ([…], time 7 day): 0.8%
Fbg ([…], time 7 day): 296.6 mg/dL
Hb ([…], time 7 day): 13.9 g/dL
Ht ([…], time 7 day): 41.6%
Lym ([…], time 7 day): 77.2%
MCH ([…], time 7 day): 21.3 pg
MCHC ([…], time 7 day): 33.3%
MCV ([…], time 7 day): 63.9 fL
Mono ([…], time 7 day): 2.6%
Neu ([…], time 7 day): 18.6%
PT ([…], time 7 day): 12.8 s
Plat ([…], time 7 day): 129.4 x10_4/uL
RBC ([…], time 7 day): 652.4 x10_4/ul
Ret ([…], time 7 day): 6.5%
WBC ([…], time 7 day): 89.4 x10_2/uL
APTT ([…], time 14 day): 22.2 s
Bas ([…], time 14 day): 0%
Eos ([…], time 14 day): 0.8%
Fbg ([…], time 14 day): 287.8 mg/dL
Hb ([…], time 14 day): 14.6 g/dL
Ht ([…], time 14 day): 43.2%
Lym ([…], time 14 day): 76%
MCH ([…], time 14 day): 20.3 pg
MCHC ([…], time 14 day): 33.8%
MCV ([…], time 14 day): 60.1 fL
Mono ([…], time 14 day): 2%
Neu ([…], time 14 day): 20%
PT ([…], time 14 day): 13.1 s
Plat ([…], time 14 day): 124.4 x10_4/uL
RBC ([…], time 14 day): 720 x10_4/ul
Ret ([…], time 14 day): 4.4%
WBC ([…], time 14 day): 107.6 x10_2/uL
APTT ([…], time 28 day): 20.5 s
Bas ([…], time 28 day): 0%
Eos ([…], time 28 day): 1.6%
Fbg ([…], time 28 day): 283.4 mg/dL
Hb ([…], time 28 day): 15.9 g/dL
Ht ([…], time 28 day): 45.7%
Lym ([…], time 28 day): 79.6%
MCH ([…], time 28 day): 19.9 pg
MCHC ([…], time 28 day): 34.8%
MCV ([…], time 28 day): 57.2 fL
Mono ([…], time 28 day): 2%
Neu ([…], time 28 day): 16.2%
PT ([…], time 28 day): 13.3 s
Plat ([…], time 28 day): 103.4 x10_4/uL
RBC ([…], time 28 day): 799.4 x10_4/ul
Ret ([…], time 28 day): 2.2%
WBC ([…], time 28 day): 93.1 x10_2/uL
KIDNEY_L ([…], time 7 day): 1.1 g
KIDNEY_R ([…], time 7 day): 1.1 g
KIDNEY_TOTAL ([…], time 7 day): 2.3 g
KIDNEY_L ([…], time 14 day): 1.1 g
KIDNEY_R ([…], time 14 day): 1.2 g
KIDNEY_TOTAL ([…], time 14 day): 2.3 g
KIDNEY_L ([…], time 28 day): 1.4 g
KIDNEY_R ([…], time 28 day): 1.3 g
KIDNEY_TOTAL ([…], time 28 day): 2.7 g
LIVER ([…], time 7 day): 13.2 g
LIVER ([…], time 14 day): 13.2 g
LIVER ([…], time 28 day): 15 g
A/G ([…], time 7 day): 0.8
ALP ([…], time 7 day): 1472.4 IU/L
ALT ([…], time 7 day): 38.4 IU/L
AST ([…], time 7 day): 66.6 IU/L
BUN ([…], time 7 day): 16.4 mg/dL
CRE ([…], time 7 day): 0.2 mg/dL
Ca ([…], time 7 day): 11 mg/dL
Cl ([…], time 7 day): 103.6 meq/L
DBIL ([…], time 7 day): 0.004 mg/dL
GLC ([…], time 7 day): 173.8 mg/dL
IP ([…], time 7 day): 8.1 mg/dL
K ([…], time 7 day): 3.8 meq/L
LDH ([…], time 7 day): 83.8 IU/L
Na ([…], time 7 day): 142.4 meq/L
PL ([…], time 7 day): 160.4 mg/dL
RALB ([…], time 7 day): 2.7 g/dL
TBIL ([…], time 7 day): 0.052 mg/dL
TC ([…], time 7 day): 83.2 mg/dL
TG ([…], time 7 day): 115.6 mg/dL
TP ([…], time 7 day): 5.8 g/dL
gamma-GTP ([…], time 7 day): 1 IU/L
A/G ([…], time 14 day): 0.8
ALP ([…], time 14 day): 1741.6 IU/L
ALT ([…], time 14 day): 42.6 IU/L
AST ([…], time 14 day): 72.2 IU/L
BUN ([…], time 14 day): 16 mg/dL
CRE ([…], time 14 day): 0.2 mg/dL
Ca ([…], time 14 day): 10.6 mg/dL
Cl ([…], time 14 day): 105.8 meq/L
DBIL ([…], time 14 day): 0.014 mg/dL
GLC ([…], time 14 day): 188 mg/dL
IP ([…], time 14 day): 6.4 mg/dL
K ([…], time 14 day): 4.1 meq/L
LDH ([…], time 14 day): 74.6 IU/L
Na ([…], time 14 day): 142 meq/L
PL ([…], time 14 day): 161.4 mg/dL
RALB ([…], time 14 day): 2.7 g/dL
TBIL ([…], time 14 day): 0.048 mg/dL
TC ([…], time 14 day): 74.4 mg/dL
TG ([…], time 14 day): 182.4 mg/dL
TP ([…], time 14 day): 6 g/dL
gamma-GTP ([…], time 14 day): 1 IU/L
A/G ([…], time 28 day): 0.8
ALP ([…], time 28 day): 1131.6 IU/L
ALT ([…], time 28 day): 43.4 IU/L
AST ([…], time 28 day): 69.6 IU/L
BUN ([…], time 28 day): 17.2 mg/dL
CRE ([…], time 28 day): 0.2 mg/dL
Ca ([…], time 28 day): 10.8 mg/dL
Cl ([…], time 28 day): 104.4 meq/L
DBIL ([…], time 28 day): 0.014 mg/dL
GLC ([…], time 28 day): 184.8 mg/dL
IP ([…], time 28 day): 6.4 mg/dL
K ([…], time 28 day): 4.2 meq/L
LDH ([…], time 28 day): 121 IU/L
Na ([…], time 28 day): 141.6 meq/L
PL ([…], time 28 day): 146.6 mg/dL
RALB ([…], time 28 day): 2.8 g/dL
TBIL ([…], time 28 day): 0.056 mg/dL
TC ([…], time 28 day): 66.8 mg/dL
TG ([…], time 28 day): 158.2 mg/dL
TP ([…], time 28 day): 6.2 g/dL
gamma-GTP ([…], time 28 day): 1 IU/L
